Laboratory results: US12677825B2, “Composition for protecting islet transplantation” (LG CHEM, LTD., priority 2020, dated 2026)

Assays:
[1] = test system: hIAPP oligomers in hIAPP+/− islets; assay: hIAPP oligomer accumulation (A11 antibody staining) after serum-deprived culture; format: cell-based, mouse; conditions: 72 hours serum-deprived culture, BSA+Compound 1 vs BSA group; FIG. 6F
Experimental: Purified hIAPP^+/− FVB/N and C57BL/6J mouse were suspended in RPMI 1640 (Gibco, Grand Island, NY, USA) containing 100 IU/mL penicillin and 100 μg/mL streptomycin, and cultured at 37° C. in a fully humidified 5% CO2 atmosphere. Purified NHP islets were suspended in CMRL 1066 medium (Coming Life Sciences, Tewksbury, MA; catalog number 99-663-CV) containing 100 IU/mL penicillin and 100 μg/mL streptomycin, and cultured at 37° C. in a fully humidified 5% CO2 atmosphere. During the ex vivo culture of murine islets, three experimental groups were designated for experiments using hIAPP^+/− FVB/N and C57BL/6J mice islets: medium supplemented with 10% FBS (Tissue Culture Biologicals, Los Alamitos, CA, USA; catalog number 101; FBS group), medium supplemented with 0.625% bovine serum albumin (Qbiogene, Carlsbad, CA, USA; catalog number BSA003; BSA group), and medium supplemented with 0, 0.1, 1, 10 and 20 μM Compoun 1 plus 0.625% BSA (BSA+Compound 1 group). […]
Accumulation of hIAPP oligomers was evaluated using sections of hIAPP^+/− mice islets stained with A11 Ab (anti-oligomer antibody, Invitrogen) and insulin antibody (Dako). […] To quantify accumulation of hIAPP oligomers per islet, the proportion of A11-stained cells among total DAPI+islet cells was determined using confocal microscopy.

[2] = test system: STZ-induced diabetic hIAPP+/− FVB/N mice; assay: Marginal mass renal subcapsular islet transplantation, islets isolated with or without Compound 1; format: in vivo, mouse
Experimental: Mouse islets were isolated from 10- to 12-week-old hIAPP^+/− and C57BL/6 mice as described previously. Briefly, 0.8 mg/mL of collagenase P (Roche, Indianapolis, IN, USA) in Hank's buffered saline solution (HBSS, Sigma-Aldrich, St. Louis, MO, USA) with or without 20 μM Compound 1 were infused into the common bile duct for mouse pancreas digestion. Islets were purified from the digested pancreas using a Ficoll (Biochrom, Berlin, Germany) gradient and washed several times with 1 xHBSS. Isolated islets were cultured while free-floating in 10 mL of RPMI 1640 (Gibco, Grand Island, NY, USA). The medium was supplemented with 10% heat-inactivated FBS (fetal bovine serum) at 37° C. and 5% CO2 incubation prior to the ex vivo and in vivo studies.
A marginal mass renal subcapsular islet transplantation model was used to assess the in vivo islet function of hIAPP^+/− mice. To induce diabetes, 180 mg/kg of streptozotocin (STZ, Sigma-Aldrich) was administered to 8- to 10-week-old FVB/N mice. Mice were considered to have diabetes when two consecutive blood glucose level readings were higher than 300 mg/dL. Equal amounts (400 IEQ of islets per recipient) of islets isolated from hIAPP^+/− mice were allocated to the following two groups: culture medium supplemented with 0.625% BSA (BSA group) and 0.625% BSA plus Compound 1 (BSA+Compound 1 group) to evaluate the combined effect of Compound 1 on islet mass and function during ex vivo culture. After culture for 72 hours, islets were transplanted into the renal subscapular space of diabetic hIAPP^+/− mice. The IE number was calculated using the Ricordi algorithm by classifying islets according to their diameter. After islet transplantation, non-fasting blood glucose levels were measured three times a week for the first 2 weeks and twice a week for the last 2 weeks.
At 4 weeks after transplantation, the transplantation site on the kidney of mouse were removed and embedded in paraffin. Immunohistochemical staining is briefly explained in the following. After deparaffinization, 4-μm tissue sections were stained with the polyclonal guinea pig anti-insulin antibody (1:1000, A0546, DAKO, Denmark), glucacon (1:500, ab92517, abcam, United Kingdom) and amyloid (1:2500, #44-344, Invitrogen). Stained slides were observed using an Olympus BX40 light microscope (Olympus, Japan) with […] numeric aperture and ×40/0.75 numeric aperture objectives. Photographic images were collected with a digital camera (Olympus DP50) and analyzed using the Image-Pro Plus 5.1 software.
For quantification of the DAB-labeled β-cells, all slides were imaged at 10× on a Vectra 3.0 automated quantitative pathology imaging system and analyzed using inForm software (all from Perkin-Elmer, Waltham, MA, USA). The transplanted renal tissue sections were scanned for image acquisition and then to set the transplanted tissue segmentation, a number of representative regions of transplanted islet cells and regions to be excluded from the analysis such as renal tissues were examined by learn-by-example interface. For the β-cell segmentation, a spectral library was used to identify the hematoxylin-stained nuclei and the DAB-stained cytoplasm (β-cells) within the transplanted tissue. With these training sets, the algorithm for identifying only the DAB-stained cells in the transplanted tissue was verified. All the captured 10× images were analyzed, and the DAB-stained transplanted β-cells were counted.

In the case of O=S1(=O)CCN(Cc2cc(NC3CCOCC3)c3[nH]c(-c4ccccc4)cc3c2)CC1 [Compound 1], the “proportion of accumulation of hIAPP oligomers” value [1] was “significantly decreased”, the diabetes reversal rate ([2]; islets isolated with Compound 1, vs control group, FIG. 3C) was “better” and the “proportion of insulin positive area in the grafted tissue” value ([2]; islets isolated with Compound 1, vs control group, FIG. 3F) was “greater”. For the same molecule, the “glucose levels during intraperitoneal glucose tolerance test (IPGTT)” value ([2]; islets isolated with Compound 1, vs control group, FIGS. 3D, 3E) was “better”, the post-transplant glucose levels ([2]; islets isolated with Compound 1, vs non-treated group, FIG. 3B) was “markedly lower” and the “glycemia after removal of the grafted kidney” value ([2]; islets isolated with Compound 1, FIG. 3B) was “regain of hyperglycemia”.
